Assay results as given in patent publication US8906925B2, “Pyrido[4,3-B]indoles containing rigid moieties” (Medivation Technologies, Inc., priority 2008, dated 2014).

Experiments:
[1] = target: human recombinant dopamine D2S receptor (Homo sapiens, UniProt P14416); assay: Dopamine D2S [35S]GTPγS functional assay (SPA, CHO membranes); assay type: biochemical; conditions: read-out: D2S GTPgS % Inhibition
Method: To determine for agonist or antagonist activity of compounds of the invention in functional assays, human recombinant dopamine D2S receptor stably expressed in Chinese hamster ovary (CHO) cells (Gilliland S L and Alper R H. Naunyn-Schmiedeberg's Archives of Pharmacology. 361: 498, 2000) was used. Compounds of invention were pre-incubated with the membranes (0.05 mg/mL) and 3 µM GDP in modified HEPES buffer (20 mM HEPES, pH 7.4, 100 mM NaCl, 10 mM MgCl2, 1 mM DTT, 1 mM EDTA) for 20 min. and Scintillation Proximity Assay (SPA) beads were then added for another 60 min. at 30° C. The reaction was initiated by 0.3 nM [^35S]GTPγS for an additional 30 min. incubation period. […] Compounds were screened at […] or lower, using 0.4% DMSO as vehicle. Assay results are presented as the percent response of specific binding in Table 13.

[2] = target: human dopamine D2L receptor (Homo sapiens, UniProt P14416); assay: Dopamine D2L [35S]GTPγS functional assay (SPA, CHO membranes); assay type: biochemical; conditions: read-out: D2L GTPgS % Inhibition
human dopamine D2L receptor, sequence (P14416 whole entry): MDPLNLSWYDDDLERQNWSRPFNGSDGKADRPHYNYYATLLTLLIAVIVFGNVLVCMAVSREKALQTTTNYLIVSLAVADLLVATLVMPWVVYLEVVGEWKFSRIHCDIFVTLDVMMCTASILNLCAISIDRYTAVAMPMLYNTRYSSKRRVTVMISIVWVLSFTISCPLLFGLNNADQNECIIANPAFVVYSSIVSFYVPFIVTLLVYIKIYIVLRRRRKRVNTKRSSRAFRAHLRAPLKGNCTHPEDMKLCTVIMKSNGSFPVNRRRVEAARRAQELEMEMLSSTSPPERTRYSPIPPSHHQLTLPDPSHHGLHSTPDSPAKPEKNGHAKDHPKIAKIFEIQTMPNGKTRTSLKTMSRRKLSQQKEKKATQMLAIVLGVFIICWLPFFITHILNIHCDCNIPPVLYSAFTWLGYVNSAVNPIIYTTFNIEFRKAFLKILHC
Method: To determine for agonist or antagonist activity of compounds of the invention in functional assays, human recombinant dopamine D2L receptor stably expressed in Chinese hamster ovary (CHO) cells (Senogles S E et al. J Biol Chem. 265(8): 4507, 1990) was used. Compounds of invention were pre-incubated with the membranes (0.1 mg/mL) and 10 mM GDP in modified HEPES buffer (20 mM HEPES, pH 7.4, 100 mM NaCl, 10 mM MgCl2, 1 mM DTT, 1 mM EDTA) for 20 min. and Scintillation Proximity Assay (SPA) beads were added for another 60 min. at 30° C. The reaction was initiated by 0.3 nM [^35S]GTPγS for an additional 15 min. incubation period. […] Compounds were screened at […] or lower, using 0.4% DMSO as vehicle. Assay results are presented as the percent response of specific binding in Table 12.

human recombinant dopamine D2S receptor, sequence (P14416 1-414 isoform P14416-2): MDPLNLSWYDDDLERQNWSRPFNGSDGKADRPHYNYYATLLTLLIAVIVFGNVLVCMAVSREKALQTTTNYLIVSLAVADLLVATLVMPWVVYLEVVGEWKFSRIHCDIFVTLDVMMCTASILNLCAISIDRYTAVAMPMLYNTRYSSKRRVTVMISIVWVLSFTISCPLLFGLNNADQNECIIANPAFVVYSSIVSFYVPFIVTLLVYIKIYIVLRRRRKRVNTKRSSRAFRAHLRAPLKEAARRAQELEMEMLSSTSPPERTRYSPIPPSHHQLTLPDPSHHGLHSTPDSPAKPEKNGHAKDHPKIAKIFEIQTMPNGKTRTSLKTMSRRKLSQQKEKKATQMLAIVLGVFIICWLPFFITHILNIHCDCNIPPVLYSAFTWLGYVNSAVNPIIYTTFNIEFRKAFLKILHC

inhibition at 0.001 µM ([1]; conc. 1 nM): 15%
inhibition at 0.003 µM ([1]; conc. 3 nM): 45%
inhibition at 0.01 µM ([1]; conc. 10 nM): 56%
inhibition at 0.03 µM ([1]; conc. 30 nM): 74%
inhibition at 0.1 µM ([1]; conc. 100 nM): 91%
inhibition at 0.001 µM ([2]; conc. 1 nM): 16%
inhibition at 0.003 µM ([2]; conc. 3 nM): 28%
inhibition at 0.01 µM ([2]; conc. 10 nM): 49%
inhibition at 0.03 µM ([2]; conc. 30 nM): 55%
inhibition at 0.1 µM ([2]; conc. 100 nM): 77%
SMILES: C/C(=C\n1c2c(c3cc(Cl)ccc31)CN(C)CC2)c1ccc(F)cc1 [Compound 83, (E)-8-chloro-5-(2-(4-fluorophenyl)prop-1-enyl)-2,3,4,5-tetrahydro-2-methyl-1H-pyrido[4,3-b]indole]
